≈ marks a conversion by molar mass, not a printed value. Where two headings read alike, the source gives them in different places.
How the values were obtained:
[1] = system: MRSA methicillin resistant S. aureus; assay: Antimicrobial activity (MIC) against S. aureus / MRSA; format: cell-based; conditions: Staphylococcus aureus, Cli, Eri, Pen, Lvx
[2] = system: MRSA methicillin resistant S. aureus; assay: Antibiofilm activity (MBIC) against MRSA; format: cell-based; conditions: Cli, Eri, Pen, Lvx
[3] = Stability studies by 1H and 31P NMR; format: physicochemical; conditions: for stability towards reducing agent (31P NMR): CD3CN/H2O
Procedure: A solution of compound 2f in CD3CN (0.25 mL) was mixed with 0.25 mL of saline phosphate buffer (pH 7.4) in D2O and the mixture was monitored at 37° C. over three days through ^1H and ^31P NMR spectroscopy. […] Such observations show a substantial evidence for the stability of complexes 2 under physiological conditions.
Complexes 2 are also stable in the conditions used for the biological activity assays, as evidenced by the ^31P NMR spectra of a solution of compound 2f in CD3CN (0.25 mL) and 0.25 mL of ISOsensitest culture broth prepared in D2O (FIG. 15).
To gain a more complete picture of the stability and the solution behavior of these gold(III) compounds 2, the spectral changes produced by addition of classical reducing agents, i.e. glutathione (GSH) and ascorbic acid (AsAc) were also examined. Thus, solutions of compound 2f in CD3CN (0.25 mL) were mixed with solutions containing equimolar amounts of either GSH or AsAc in 0.25 mL of H2O.

A. baumannii = assay: MIC against A. baumannii, alone and in combination with colistine; format: cell-based

In the case of `C[C@H]1COc2c(N3CCN(C)CC3)c(F)cc3c(=O)c(C(=O)O)cn1c23` [Levofloxacin, levofloxacin], the MIC ([1]; MRSA, strain MRSA 1, resistance profile Cip) was 128 µg/mL (≈ 354 µM), the MIC ([1]; strain MRSA 2, resistance profile Gen, Cip, read-out: MIC) was 64 µg/mL (≈ 177 µM) and the MBIC ([2]; strain MRSA 1, resistance profile Cip) was >256 mg/L. For the same compound, the MBIC ([2]; strain MRSA 2, resistance profile Gen, Cip) was 128 mg/L.

With “[Gold(III) 2-((diisopropylamino)(phenyl)phosphorothioyl)phenyl) (pirrolidin-1-dithiocarbamate)] hexafluorophosphate [Compound 2f]” the “stability in the conditions of the biological activity assays” value ([3]; CD3CN / ISOsensitest culture broth in D2O) was “stable”, the “31P NMR signal of the complex (stability)” value ([3]; CD3CN / saline phosphate buffer (pH 7.4) in D2O, 37° C., three days) was “remained unaltered” and the “stability towards reducing agent (31P NMR)” value ([3]; equimolar ascorbic acid (AsAc)) was “maintained its chemical integrity”. The “stability towards reducing agent (31P NMR)” value ([3]; equimolar glutathione (GSH)) was “maintained its chemical integrity”.

Compound colistine has an MIC (A. baumannii; each antibiotic separately) of 64 µg/mL and an MIC in combination (A. baumannii; gold(III) complex and colistine used in combination) of 1 µg/mL.

Source: patent publication US11866455B2, “Gold(III) complex, a conjugate of the gold(III) complex, a pharmaceutical composition comprising the gold(III) complex and uses and a process for preparing the gold(III) complex” (UNIVERSIDAD DE ALMERIA, priority 2018, dated 2024)
